Source: PMC11267547, “Advancing drug discovery through assay development: a survey of tool compounds within the human solute carrier superfamily” (Frontiers in Pharmacology, 2024)

Target: T1, SLC6A8 (Homo sapiens, UniProt P48029)
T1 construct: expressed in transfected cells; host or cells: Jump In T-REx HEK293 (general cell-line paragraph)
T1 sequence (P48029 1-635): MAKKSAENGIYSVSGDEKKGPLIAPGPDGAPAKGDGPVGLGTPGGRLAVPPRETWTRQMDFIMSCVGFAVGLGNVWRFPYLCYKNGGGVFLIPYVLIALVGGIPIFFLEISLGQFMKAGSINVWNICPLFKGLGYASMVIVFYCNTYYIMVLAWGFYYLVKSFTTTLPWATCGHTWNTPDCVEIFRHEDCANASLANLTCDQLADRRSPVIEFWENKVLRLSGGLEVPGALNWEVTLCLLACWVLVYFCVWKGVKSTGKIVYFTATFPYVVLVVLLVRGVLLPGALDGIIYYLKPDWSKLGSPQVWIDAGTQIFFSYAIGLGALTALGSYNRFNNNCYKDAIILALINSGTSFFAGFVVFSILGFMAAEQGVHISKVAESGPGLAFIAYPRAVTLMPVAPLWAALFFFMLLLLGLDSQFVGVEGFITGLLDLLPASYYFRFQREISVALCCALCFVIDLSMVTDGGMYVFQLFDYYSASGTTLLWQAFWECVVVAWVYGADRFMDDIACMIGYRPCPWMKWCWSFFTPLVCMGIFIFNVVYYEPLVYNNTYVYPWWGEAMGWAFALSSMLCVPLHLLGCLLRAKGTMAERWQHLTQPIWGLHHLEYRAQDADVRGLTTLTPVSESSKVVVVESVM
Assay: RESOLUTE assay on SLC6A8
Type: cell-based
Details: not given
Protocol: (§1) FLIPR Membrane Potential Blue Dye was used to detect the compound activities for those membrane transporters that are electrogenic or whose activity is associated with changes in membrane potential, as previously described ([Jensen and BräunerOsborne, 2004]). In brief, cells are seeded at cell line-specific density in black clear-bottom poly-D-Lysine-coated 384-well plates (Greiner Bio-One) in DMEM high-glucose medium with 10% FBS, 1% P/S, and 2 mM UltraGlutamine I (25 µL/well). Furthermore, 24 h after seeding, the culture medium is removed, and the cells are loaded with 20 µL/well of 0.5 X FMP Blue Dye in assay buffer (modified Tyrode’s buffer, 130 mM NaCl, 5 mM KCl, 1 mM MgCl2, 2 mM CaCl2, 5 mM NaHCO3, and 20 mM HEPES pH 7.4). The plates are subsequently incubated for at least 30 min at room temperature in the dark. Then, 10 µL/well of test compounds and controls is added at defined concentrations (0.5% DMSO final conc.) in the FLIPR TETRA instrument (Molecular Devices), and emitted fluorescence is recorded using a λexc 510–545-nm/λem 565–625-nm filter. The dose–response curves for the 19 compounds were prepared starting from 3 µM (final top concentration), the half-log serial dilution factor. For data analysis, Genedata Screener 19.0 software was used.
(§2) The robust Z prime factor (RZ’ factor) was calculated with the following formula: RZ^′=1−3∗RSDMAX+RSDMIN/AbsMAX − MIN, where the RZ’ factor is based on the same formula as the Z′ factor ([Zhang et al., 1999]) but standard deviations and means are replaced by the robust standard deviations and medians, respectively. Curve fitting profiles were performed on each dose–response curve with the analyzer module of Genedata Screener 19.0 on % activity.

Structure (SMILES)	IC50 [µM]
C=C(C)[C@H]1CN[C@H](C(=O)O)[C@H]1CC(=O)O [Kainic acid]	> 3.16

Same assay, conditions: target SLC6A8, Flipr Membrane Potential-Blue-Dye; read-out: pIC50 (act) (converted)

Structure (SMILES)	IC50 [µM]
Cc1c(NC(=O)c2cc(C(N)=O)nc3cc(F)ccc23)c(C(F)(F)F)nn1Cc1ccc(C#N)cc1 [BAY-876]	> 3.16
CN1C2CCC1CC(OC(c1ccccc1)c1ccccc1)C2 (stereo not drawn) [Benzotropine]	> 3.16
CCNC(=O)/C=C/c1cccc(Br)c1 [Cinromide]	> 3.16
O=S(=O)(O)c1cc(N=C=S)ccc1/C=C/c1ccc(N=C=S)cc1S(=O)(=O)O [DIDS]	> 3.16
COCCOc1cc(CC2CCN(CCc3ccc4c(c3)C(=O)CCO4)CC2)ccc1Br [DSP-1053]	> 3.16
CNCCCN1c2ccccc2CCc2ccccc21 [Desipramine]	> 3.16
CC(C)[C@H]1CN[C@H](C(=O)O)[C@H]1CC(=O)O [Dihydrokainate]	> 3.16
N#Cc1ccc(Nc2cnccc2SCc2ccccc2C(=O)O)c2ccccc12 [KPH2f]	> 3.16

Target: T2, SLC6A9 (Homo sapiens, UniProt P48067)
T2 construct: expressed in transfected cells; host or cells: Jump In T-REx HEK293 (general cell-line paragraph)
T2 sequence (P48067 1-706): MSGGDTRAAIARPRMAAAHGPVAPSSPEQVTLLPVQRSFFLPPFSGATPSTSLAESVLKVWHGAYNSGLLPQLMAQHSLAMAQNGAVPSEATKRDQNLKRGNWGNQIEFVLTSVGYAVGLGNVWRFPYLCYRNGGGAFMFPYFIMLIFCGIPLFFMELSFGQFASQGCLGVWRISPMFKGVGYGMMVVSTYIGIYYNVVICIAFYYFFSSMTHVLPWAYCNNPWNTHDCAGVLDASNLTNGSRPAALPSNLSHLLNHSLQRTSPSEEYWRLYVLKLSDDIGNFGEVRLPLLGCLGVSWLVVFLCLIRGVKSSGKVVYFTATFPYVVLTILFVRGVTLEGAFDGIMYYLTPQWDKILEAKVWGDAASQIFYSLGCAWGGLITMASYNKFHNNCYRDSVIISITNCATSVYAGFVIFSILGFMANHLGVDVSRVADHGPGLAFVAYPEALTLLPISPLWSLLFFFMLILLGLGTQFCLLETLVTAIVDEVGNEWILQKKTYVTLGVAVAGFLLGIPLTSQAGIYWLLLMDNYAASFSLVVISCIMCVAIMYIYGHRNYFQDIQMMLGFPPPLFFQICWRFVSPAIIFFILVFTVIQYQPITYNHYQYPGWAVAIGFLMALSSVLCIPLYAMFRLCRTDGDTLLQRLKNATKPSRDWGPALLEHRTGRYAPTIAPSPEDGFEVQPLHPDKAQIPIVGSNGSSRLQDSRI
Assay: RESOLUTE assay on SLC6A9
Type: cell-based
Details: not given
Protocol: as §1, §2

Structure (SMILES)	IC50 [µM]
C=C(C)[C@H]1CN[C@H](C(=O)O)[C@H]1CC(=O)O [Kainic acid]	> 3.16

Same assay, conditions: target SLC6A9, Flipr Membrane Potential-Blue-Dye; read-out: pIC50 (act) (converted)

Structure (SMILES)	IC50 [µM]
Cc1c(NC(=O)c2cc(C(N)=O)nc3cc(F)ccc23)c(C(F)(F)F)nn1Cc1ccc(C#N)cc1 [BAY-876]	> 3.16
CN1C2CCC1CC(OC(c1ccccc1)c1ccccc1)C2 (stereo not drawn) [Benzotropine]	> 3.16
CCNC(=O)/C=C/c1cccc(Br)c1 [Cinromide]	> 3.16
O=S(=O)(O)c1cc(N=C=S)ccc1/C=C/c1ccc(N=C=S)cc1S(=O)(=O)O [DIDS]	> 3.16
COCCOc1cc(CC2CCN(CCc3ccc4c(c3)C(=O)CCO4)CC2)ccc1Br [DSP-1053]	> 3.16
CNCCCN1c2ccccc2CCc2ccccc21 [Desipramine]	> 3.16
CC(C)[C@H]1CN[C@H](C(=O)O)[C@H]1CC(=O)O [Dihydrokainate]	> 3.16
N#Cc1ccc(Nc2cnccc2SCc2ccccc2C(=O)O)c2ccccc12 [KPH2f]	> 3.16

Target: T3, SLC7A3 (Homo sapiens, UniProt Q8WY07)
T3 construct: expressed in transfected cells; host or cells: Jump In T-REx HEK293 (general cell-line paragraph)
T3 sequence (Q8WY07 whole entry): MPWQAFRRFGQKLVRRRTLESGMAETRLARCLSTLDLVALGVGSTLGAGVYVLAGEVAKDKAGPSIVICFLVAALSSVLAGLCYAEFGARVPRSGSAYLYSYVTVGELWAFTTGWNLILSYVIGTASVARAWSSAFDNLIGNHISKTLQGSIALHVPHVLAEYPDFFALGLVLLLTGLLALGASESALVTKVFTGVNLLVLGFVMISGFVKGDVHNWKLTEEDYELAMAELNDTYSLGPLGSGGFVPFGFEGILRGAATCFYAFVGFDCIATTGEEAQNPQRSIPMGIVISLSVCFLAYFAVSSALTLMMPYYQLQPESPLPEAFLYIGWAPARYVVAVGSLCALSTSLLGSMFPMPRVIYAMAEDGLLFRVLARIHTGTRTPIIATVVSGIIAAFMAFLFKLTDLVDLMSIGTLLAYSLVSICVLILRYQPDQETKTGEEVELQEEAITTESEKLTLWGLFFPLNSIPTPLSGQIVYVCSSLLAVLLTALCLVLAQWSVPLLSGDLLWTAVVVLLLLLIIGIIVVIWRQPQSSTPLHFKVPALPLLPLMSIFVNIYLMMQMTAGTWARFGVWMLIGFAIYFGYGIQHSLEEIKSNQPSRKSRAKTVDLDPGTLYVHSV
Assay: RESOLUTE assay on SLC7A3
Type: cell-based
Details: not given
Protocol: as §1, §2

Structure (SMILES)	IC50 [µM]
C=C(C)[C@H]1CN[C@H](C(=O)O)[C@H]1CC(=O)O [Kainic acid]	> 3.16

Same assay, conditions: target SLC7A3, Flipr Membrane Potential-Blue-Dye; read-out: pIC50 (act) (converted)

Structure (SMILES)	IC50 [µM]
Cc1c(NC(=O)c2cc(C(N)=O)nc3cc(F)ccc23)c(C(F)(F)F)nn1Cc1ccc(C#N)cc1 [BAY-876]	> 3.16
CN1C2CCC1CC(OC(c1ccccc1)c1ccccc1)C2 (stereo not drawn) [Benzotropine]	> 3.16
CCNC(=O)/C=C/c1cccc(Br)c1 [Cinromide]	> 3.16
O=S(=O)(O)c1cc(N=C=S)ccc1/C=C/c1ccc(N=C=S)cc1S(=O)(=O)O [DIDS]	> 3.16
COCCOc1cc(CC2CCN(CCc3ccc4c(c3)C(=O)CCO4)CC2)ccc1Br [DSP-1053]	> 3.16
CNCCCN1c2ccccc2CCc2ccccc21 [Desipramine]	> 3.16
CC(C)[C@H]1CN[C@H](C(=O)O)[C@H]1CC(=O)O [Dihydrokainate]	> 3.16
N#Cc1ccc(Nc2cnccc2SCc2ccccc2C(=O)O)c2ccccc12 [KPH2f]	> 3.16

Target: T4, SLC13A3 (Homo sapiens, UniProt Q8WWT9)
T4 construct: expressed in transfected cells; host or cells: Jump In T-REx HEK293 (general cell-line paragraph)
T4 sequence (Q8WWT9 1-602): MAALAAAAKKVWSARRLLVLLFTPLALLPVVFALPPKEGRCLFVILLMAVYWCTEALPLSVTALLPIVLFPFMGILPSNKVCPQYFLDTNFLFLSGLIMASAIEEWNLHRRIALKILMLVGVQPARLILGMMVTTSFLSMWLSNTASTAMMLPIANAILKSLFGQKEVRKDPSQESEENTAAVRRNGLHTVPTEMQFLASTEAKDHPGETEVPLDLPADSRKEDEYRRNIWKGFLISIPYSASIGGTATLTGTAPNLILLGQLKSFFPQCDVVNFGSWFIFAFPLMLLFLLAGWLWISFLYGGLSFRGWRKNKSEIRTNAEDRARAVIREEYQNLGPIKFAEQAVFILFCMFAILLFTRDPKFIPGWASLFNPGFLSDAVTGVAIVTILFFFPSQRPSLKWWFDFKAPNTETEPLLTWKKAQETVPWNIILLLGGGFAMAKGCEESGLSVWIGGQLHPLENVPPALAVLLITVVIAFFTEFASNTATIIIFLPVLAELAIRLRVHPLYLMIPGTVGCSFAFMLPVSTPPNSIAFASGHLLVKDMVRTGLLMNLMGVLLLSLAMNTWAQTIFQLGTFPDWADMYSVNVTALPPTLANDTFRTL
Assay: RESOLUTE assay on SLC13A3
Type: cell-based
Details: not given
Protocol: as §1, §2

Structure (SMILES)	IC50 [µM]
C=C(C)[C@H]1CN[C@H](C(=O)O)[C@H]1CC(=O)O [Kainic acid]	> 3.16

Same assay, conditions: Flipr Membrane Potential-Blue-Dye; read-out: pIC50 (act), SLC13A3 (converted)

Structure (SMILES)	IC50 [µM]
Cc1c(NC(=O)c2cc(C(N)=O)nc3cc(F)ccc23)c(C(F)(F)F)nn1Cc1ccc(C#N)cc1 [BAY-876]	> 3.16
CN1C2CCC1CC(OC(c1ccccc1)c1ccccc1)C2 (stereo not drawn) [Benzotropine]	> 3.16
CCNC(=O)/C=C/c1cccc(Br)c1 [Cinromide]	> 3.16
O=S(=O)(O)c1cc(N=C=S)ccc1/C=C/c1ccc(N=C=S)cc1S(=O)(=O)O [DIDS]	> 3.16
COCCOc1cc(CC2CCN(CCc3ccc4c(c3)C(=O)CCO4)CC2)ccc1Br [DSP-1053]	> 3.16
CNCCCN1c2ccccc2CCc2ccccc21 [Desipramine]	> 3.16
CC(C)[C@H]1CN[C@H](C(=O)O)[C@H]1CC(=O)O [Dihydrokainate]	> 3.16
N#Cc1ccc(Nc2cnccc2SCc2ccccc2C(=O)O)c2ccccc12 [KPH2f]	> 3.16

Target: SLC1A3 (Homo sapiens, UniProt P43003)
Sequence (P43003 whole entry): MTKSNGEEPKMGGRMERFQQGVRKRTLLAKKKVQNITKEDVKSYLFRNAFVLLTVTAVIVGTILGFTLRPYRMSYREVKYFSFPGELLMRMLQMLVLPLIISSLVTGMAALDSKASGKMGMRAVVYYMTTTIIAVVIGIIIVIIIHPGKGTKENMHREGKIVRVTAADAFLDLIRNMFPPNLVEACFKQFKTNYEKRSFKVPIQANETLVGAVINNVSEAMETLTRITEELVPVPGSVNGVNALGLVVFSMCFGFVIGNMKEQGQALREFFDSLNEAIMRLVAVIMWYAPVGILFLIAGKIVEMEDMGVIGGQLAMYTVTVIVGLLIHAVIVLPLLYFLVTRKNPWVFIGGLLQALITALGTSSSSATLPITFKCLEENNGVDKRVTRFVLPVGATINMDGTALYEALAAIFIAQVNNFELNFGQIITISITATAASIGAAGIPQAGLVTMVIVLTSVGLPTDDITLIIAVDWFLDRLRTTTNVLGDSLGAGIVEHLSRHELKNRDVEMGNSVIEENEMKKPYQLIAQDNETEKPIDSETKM
Assay: Echo-MS assay, uptake of labeled glutamic acid in dox-induced HEK293–JumpIn–SLC1A3 (EAAT1) cells
Type: cell-based
Parameters: expressed in transfected cells; host or cells: Jump In T-REx HEK293
Details: not given

Structure (SMILES)	IC50 [µM]
C=C(C)[C@H]1CN[C@H](C(=O)O)[C@H]1CC(=O)O [Kainic acid]	> 30

Same assay, conditions: target SLC1A3, assay EchoMS; read-out: pIC50 (act) (converted)

Structure (SMILES)	IC50 [µM]
Cc1c(NC(=O)c2cc(C(N)=O)nc3cc(F)ccc23)c(C(F)(F)F)nn1Cc1ccc(C#N)cc1 [BAY-876]	> 30
CN1C2CCC1CC(OC(c1ccccc1)c1ccccc1)C2 (stereo not drawn) [Benzotropine]	> 30
CCNC(=O)/C=C/c1cccc(Br)c1 [Cinromide]	> 30
O=S(=O)(O)c1cc(N=C=S)ccc1/C=C/c1ccc(N=C=S)cc1S(=O)(=O)O [DIDS]	> 30
COCCOc1cc(CC2CCN(CCc3ccc4c(c3)C(=O)CCO4)CC2)ccc1Br [DSP-1053]	> 30
CNCCCN1c2ccccc2CCc2ccccc21 [Desipramine]	> 30
CC(C)[C@H]1CN[C@H](C(=O)O)[C@H]1CC(=O)O [Dihydrokainate]	> 30
N#Cc1ccc(Nc2cnccc2SCc2ccccc2C(=O)O)c2ccccc12 [KPH2f]	> 30
